# Reference: patent US20160346249A1 (priority 2012, published 2016)
# What was measured:
# [1] = Single-dose (25 mg) gender study in males and females (DOV-947-005); assay type: in vivo, human; conditions: for AUC(0-inf) / AUC(0-t) / Cmax / Tmax / half-life: human, in vivo, single oral dose 25 mg
# [2] = Single-dose (25 mg) food effect crossover study in 24 men (DOV 947-003); assay type: in vivo, human; conditions: for AUC(0-inf) / AUC(0-t) / Cmax / Tmax / half-life: male, human, in vivo, po, single oral dose 25 mg, 24 healthy male subjects
# in vivo = conditions: Crl:CD-1(ICR) BR, mouse, po; for AUC(0-t): AUC0-24
compound,measurement,setting,value
"Clc1ccc([C@]23CNC[C@H]2C3)cc1Cl [amitifadine, (+)-1-(3,4-dichlorophenyl)-3-azabicyclo[3.1.0]hexane]",QTc prolongation,[1]; 25 mg,no sustained or significant prolongation of QTc
same,gender difference in Cmax or AUC,[1]; 25 mg,no difference in either Cmax or AUC values between the two sexes
same,subjects with orthostatic hypotension,"[1]; all subjects, 25 mg",30%
same,AUC(0-inf),"[1]; female, Females (N = 38)",1590 ng·h/mL
same,AUC(0-t),"[1]; female, Females (N = 38)",1490 ng·h/mL
same,Cmax,"[1]; female, Females (N = 38)",291 ng/mL
same,Tmax,"[1]; female, Females (N = 38)",1.38 h
same,half-life,"[1]; female, Females (N = 38)",3.73 h
same,subjects with orthostatic hypotension,"[1]; females, 25 mg",28.9%
same,AUC(0-inf),"[1]; male, Males (N = 32)",1440 ng·h/mL
same,AUC(0-t),"[1]; male, Males (N = 32)",1360 ng·h/mL
same,Cmax,"[1]; male, Males (N = 32)",273 ng/mL
same,Tmax,"[1]; male, Males (N = 32)",1.27 h
same,half-life,"[1]; male, Males (N = 32)",3.41 h
same,subjects with orthostatic hypotension,"[1]; males, 25 mg",31.3%
same,effect of food on exposure,[2]; fed vs fasted,no effect of food on exposure
same,AUC(0-inf),[2]; Fasted,1290 ng·h/mL
same,AUC(0-t),[2]; Fasted,1200 ng·h/mL
same,Cmax,[2]; Fasted,272 ng/mL
same,Tmax,[2]; Fasted,0.98 h
same,half-life,[2]; Fasted,3.42 h
same,AUC(0-inf),[2]; Fed,1420 ng·h/mL
same,AUC(0-t),[2]; Fed,1320 ng·h/mL
same,Cmax,[2]; Fed,224 ng/mL
same,Tmax,[2]; Fed,2.57 h
same,half-life,[2]; Fed,3.71 h
same,AUC(0-t),"in vivo; female, 10 mg/kg/day",2490 ng·h/mL
same,Cmax,"in vivo; female, 10 mg/kg/day",323 ng/mL
same,Tmax,"in vivo; female, 10 mg/kg/day",2 h
same,AUC(0-t),"in vivo; female, 30 mg/kg/day",9920 ng·h/mL
same,Cmax,"in vivo; female, 30 mg/kg/day",1140 ng/mL
same,Tmax,"in vivo; female, 30 mg/kg/day",2 h
same,AUC(0-t),"in vivo; female, 100 mg/kg/day",20200 ng·h/mL
same,Tmax,"in vivo; female, 100 mg/kg/day",2 h
same,Cmax,"in vivo; female, 150 mg/kg/day",4940 ng/mL
same,Tmax,"in vivo; female, 150 mg/kg/day",2 h
same,AUC(0-t),"in vivo; male, 10 mg/kg/day",1970 ng·h/mL
same,Cmax,"in vivo; male, 10 mg/kg/day",261 ng/mL
same,Tmax,"in vivo; male, 10 mg/kg/day",1 h
same,AUC(0-t),"in vivo; male, 30 mg/kg/day",12800 ng·h/mL
same,Cmax,"in vivo; male, 30 mg/kg/day",1060 ng/mL
same,Tmax,"in vivo; male, 30 mg/kg/day",1 h
same,AUC(0-t),"in vivo; male, 100 mg/kg/day",22300 ng·h/mL
same,Cmax,"in vivo; male, 100 mg/kg/day",3900 ng/mL
same,Tmax,"in vivo; male, 100 mg/kg/day",2 h
same,AUC(0-t),"in vivo; male, 150 mg/kg/day",71100 ng·h/mL
same,Cmax,"in vivo; male, 150 mg/kg/day",5610 ng/mL
same,Tmax,"in vivo; male, 150 mg/kg/day",1 h
